Source: US11584710B2, “Compounds for treating infections” (HORITZONTS TECNOLOGICS HUNGARY KORLÁTOLT FELELOSSÉGU …, priority 2017, dated 2023)

Assays:
Type in all cases: cell-based
C. lusitaniae = assay: Antifungal disk diffusion susceptibility test (CLSI M44); settings: Clavispora lusitaniae, C. lusitaniae
Description: (§1) Filamentous fungi and yeasts strains, from clinical origin, were supplied by Microbiology Service from The Princess Hospital, Madrid. They are detailed in Table IX.
(§2) Filamentous fungi and yeast cells suspensions in distilled water was prepared from a culture of 24-48 h, depending on species, in Sabouraud agar. Each suspension was adjusted to a fixed size inoculum of 1-5×10^8 CFU/ml with a spectrophotometer (Ferraro, MJ National Committee for Clinical Laboratory Standards. 2000).
(§3) Antifungal susceptibility tests were developed following the standardized methodology detailed in document CLSI: M44-4: Method for Antifungal Disk diffusion susceptibility testing of yeasts consisting of disk diffusion on agar Muller-Hinton (supplemented with 2% glucose).

A. flavus = assay: as above; settings: Aspergillus flavus, A. flavus
Description: as §1, §2, §3

C. guillermondii = assay: as above; settings: C. guillermondii
Description: as §1, §2, §3

C. tropicalis = assay: as above; settings: Candida tropicalis, C. tropicalis
Description: as §1, §2, §3

S. cerevisiae = assay: as above; settings: Saccharomyces cerevisiae, S. cerevisiae
Description: as §1, §2, §3

A. niger = assay: as above; settings: Aspergillus niger, A. niger
Description: as §1, §2, §3

A. terreus = assay: as above; settings: Aspergillus terreus, A. terreus
Description: as §1, §2, §3

A. fumigatus = assay: as above; settings: Aspergillus fumigatus, A. fumigatus
Description: as §1, §2, §3

C. parapsilosis = assay: as above; settings: Lodderomyces parapsilosis, C. parapsilosis
Description: as §1, §2, §3

C. albicans = assay: as above; settings: Candida albicans, C. albicans
Description: as §1, §2, §3

HIV = assay: Anti-HIV assay, recombinant virus with Renilla reporter gene in MT-2 cells; settings: Human immunodeficiency virus 1, MT2, read-out: IC50 VIH MT-2 μM
From the text: Assessment of in vitro antiviral activity is usually performed to estimate parameters of antiviral potency and efficacy represented by the percentage of inhibition of HIV activity or IC50. The assay utilized is based on the use of recombinant viruses in which the nef gene, […] for in vitro HIV replication, has been replaced by a Renilla reporter gene so that viral replication can be quantified directly (García-Perez J et al, J Med Virol. 2007 February; 79(2):127-37). The assay was performed infecting MT-2 cells or PHA-activated PBMCs/IL-2 with viral supernatants obtained previously. The study was development in AIDS Immunopathology Unit, Nacional Center of Microbiology, Institute of Health Carlos 111, Majadahonda, Madrid, Spain.
All data are expressed as percentage relative to a control with DMSO at the same concentration. Antiviral activity and toxicity curves were performed to the compound at different concentrations.

P. aeruginosa = assay: Kirby-Bauer disk diffusion susceptibility test; settings: 300 μg/disc
Description: (§4) Bacterial strains, from clinical origin, were supplied by the National Center for Microbiology, Institute of Health Carlos III (Majadahonda, Madrid). They are detailed in Table 1.
(§5) Bacterial cells suspension in sterile saline was prepared from a culture of 24-72 h, depending on bacterial species, in Mueller-Hinton Agar with 5% sheep blood. Each suspension was adjusted to a fixed size inoculum of 1-5×10^8 CFU/ml with a spectrophotometer (Ferraro, MJ National Committee for Clinical Laboratory Standards. 2000).
(§6) Kirby-Bauer disk diffusion susceptibility test protocol was utilized to determine the sensitivity or resistance of pathogenic bacteria against the compounds and others antibiotics. The absence of growth around the disks is an indirect measure of the ability of this compound to inhibit an organism (Kirby, W., et al., Antibiotics Annu. 1956-1957:892). After 18 to 72 hours of incubation at 37° C., with or without CO2, under aerobic or anaerobic conditions, depending on the bacterial species, halo of growth inhibition were obtained and evaluated.
(§7) Interpretation of susceptibility and resistance was based on the presence or absence of a zone of inhibition surrounding the disk. Kirby-Bauer disk diffusion susceptibility test is a common method which uses antibiotic-impregnated wafers to test whether bacteria are affected by antibiotics. The size of the zone of inhibition depends on how effective the antibiotic is at stopping the growth of the bacterium. A stronger antibiotic will create a larger zone, because a lower concentration of the antibiotic is enough to stop growth.
(§8) All compounds were tested at 300 μg/disc.

A. baumannii = assay: Kirby-Bauer disk diffusion susceptibility test; settings: 300 μg/disc
Description: as §4, §5, §6, §7, §8

[1] = Cellular viability, CellTiter Glo; settings: human; MT-2 cells; concentration required to kill 50% of cells; read-out: CC50 VIH MT-2 μM
Description: All assays for assessing anti-HIV activity were taken in parallel to determine cellular viability of the culture in the presence or absence of different concentrations of the isolated molecule. It was followed exactly the same methodology as in the anti-HIV assay except with the addition of complete DMEM medium instead of supernatant viral, in the same proportion, and the detection of the viability was performed with the viability detection kit CellTiter Glo (Promega), following manufacturer instructions. Viability is directly proportional to the luciferase activity obtained. All data are expressed as percentage relative to a control with DMSO at the same concentration. Antiviral activity and toxicity curves were performed to the compound at different concentrations.

## NNC(=O)C(=O)NNc1ccccc1 [MSG-119]
C. lusitaniae; 150 μg/disc
  zone of inhibition at 150 µg/disc: < 10 mm
C. lusitaniae; 500 μg/disc
  zone of inhibition at 500 µg/disc: 20 mm
A. flavus; 150 μg/disc
  zone of inhibition at 150 µg/disc: 18 mm
A. flavus; 500 μg/disc
  zone of inhibition at 500 µg/disc: > 40 mm
C. guillermondii; 150 μg/disc
  zone of inhibition at 150 µg/disc: 12 mm
C. guillermondii; 500 μg/disc
  zone of inhibition at 500 µg/disc: > 40 mm
C. tropicalis; 150 μg/disc
  zone of inhibition at 150 µg/disc: 20 mm
C. tropicalis; 500 μg/disc
  zone of inhibition at 500 µg/disc: > 40 mm
S. cerevisiae; 150 μg/disc
  zone of inhibition at 150 µg/disc: 26 mm
S. cerevisiae; 500 μg/disc
  zone of inhibition at 500 µg/disc: 35 mm
A. niger; 150 μg/disc
  zone of inhibition at 150 µg/disc: 24 mm
A. niger; 500 μg/disc
  zone of inhibition at 500 µg/disc: > 40 mm
A. terreus; 150 μg/disc
  zone of inhibition at 150 µg/disc: 20 mm
A. terreus; 500 μg/disc
  zone of inhibition at 500 µg/disc: > 40 mm
A. fumigatus; 150 μg/disc
  zone of inhibition at 150 µg/disc: 22 mm
A. fumigatus; 500 μg/disc
  zone of inhibition at 500 µg/disc: > 40 mm
C. parapsilosis; 150 μg/disc
  zone of inhibition at 150 µg/disc: 15 mm
C. parapsilosis; 500 μg/disc
  zone of inhibition at 500 µg/disc: > 40 mm
C. albicans; 150 μg/disc
  zone of inhibition at 150 µg/disc: 21 mm
C. albicans; 500 μg/disc
  zone of inhibition at 500 µg/disc: 24 mm
HIV
  IC50: 7.11 µM
P. aeruginosa
  Activity detected (mm): 15 mm
A. baumannii
  Activity detected (mm): 20 mm
[1]
  CC50: > 100 µM
